Data reported in patent publication US20150315218A1, “SALTS OF PRODRUGS OF PIPERAZINE AND SUBSTITUTED PIPERIDINE ANTIVIRAL AGENTS” (Bristol-Myers Squibb Company, priority 2004, published 2015).
Structures can show the parent of a compound that is named as a salt. One block for each compound: values may come before it.

Experiments:
in vitro [1] = conditions: rat, serum
dog hepatocytes = assay: Hydrolysis of prodrug in hepatocytes (dog); assay type: in vitro ADME; conditions: dog hepatocytes, qualitative
Procedure: (§1) The in vitro intrinsic clearance of Ibb in hepatocytes (Clint) was calculated as follows: Clint(μL/min/million cells)=Rate/CE where Rate is the rate of metabolism in hepatocytes (pmol/min/million cells), and CE is the concentration of Ibb in the incubation. The in vitro intrinsic clearance of Icb in hepatocytes (Clint) was calculated as follows: Clint(μL/min/million cells)=Rate/CE where Rate is the rate of metabolism in hepatocytes (pmol/min/million cells), and CE is the concentration of Icb in the incubation.

[2] = Stability (hydrolysis) of prodrug in fresh serum (monkey); conditions: for Ibb: Ibb in fresh monkey serum, 37° C., n = 2; for Iab / IVa Formed: Monkey Serum
in vitro [3] = conditions: dog, serum
[4] = Stability (hydrolysis) of prodrug in fresh serum (dog); conditions: for Ibb: Ibb in fresh dog serum, 37° C., n = 2; for Iab / IVa Formed: Dog Serum
[5] = Stability of prodrug in fresh EDTA blood (monkey); conditions: for Ibb: Ibb in fresh monkey EDTA blood, 37° C., n = 2; for Iab / IVa Formed: Monkey EDTA blood
[6] = Stability (hydrolysis) of prodrug in fresh serum (human); conditions: for Ibb: Ibb in fresh human serum, 37° C., n = 2; for Iab / IVa Formed: Human Serum
monkey hepatocytes = assay: Hydrolysis of prodrug in hepatocytes (monkey); assay type: in vitro ADME; conditions: monkey hepatocytes, qualitative
Procedure: as §1

in vitro [7] = conditions: monkey, serum
[8] = Stability of prodrug in Tris-HCl buffer; conditions: for stability / conversion of prodrug to parent in Tris-HCl buffer: 60 min (Iab) or 90 min (Ibb, Icb); for Ibb: Ibb in Tris-HCl buffer, 37° C., n = 2
rat hepatocytes = assay: Hydrolysis of prodrug in hepatocytes (rat); assay type: in vitro ADME; conditions: rat hepatocytes, qualitative
Procedure: as §1

Structure (SMILES): O=C(C(=O)N1CCN(C(=O)c2ccccc2)CC1)c1cn(COP(=O)(O)O)c2c(-n3ccnn3)ncc(F)c12 [Ibb, [3-[(4-benzoylpiperazin-1-yl)(oxo)acetyl]-4-fluoro-7-(1H-1,2,3-triazol-1-yl)-1H-pyrrolo[2,3-c]pyridin-1-yl]methyl dihydrogen phosphate, L-lysine salt (1:1)]
half-life at 15 μM (in vitro [1]): 11.7 h | hydrolysis in the presence of hepatocytes (dog hepatocytes): hydrolyzed | Ibb ([2]; 0 min): 14 µM | Ibb ([2]; 15 min): 6.6 µM | Ibb ([2]; 30 min): 3.1 µM | Ibb ([2]; 45 min): 1.7 µM | Ibb ([2]; 60 min): 0.85 µM | Ibb ([2]; 90 min): 0.22 µM | half-life at 15 μM (in vitro [3]): 2.78 h | Ibb ([4]; 0 min): 13 µM | Ibb ([4]; 15 min): 12 µM | Ibb ([4]; 30 min): 11 µM | Ibb ([4]; 45 min): 10 µM | Ibb ([4]; 60 min): 10 µM | Ibb ([4]; 90 min): 8.9 µM | Ibb ([5]; 0 min): 16 µM | Ibb ([5]; 15 min): 19 µM | Ibb ([5]; 30 min): 18 µM | Ibb ([5]; 45 min): 18 µM | Ibb ([5]; 60 min): 19 µM | Ibb ([5]; 90 min): 17 µM | conversion of prodrug to parent in blood containing EDTA ([5]; monkey blood, 37°C, 60 min (Iab) or 90 min (Ibb, Icb)): < 2% | Ibb ([6]; 0 min): 13 µM | Ibb ([6]; 15 min): 9.0 µM | Ibb ([6]; 30 min): 10 µM | Ibb ([6]; 45 min): 10 µM | Ibb ([6]; 60 min): 8.0 µM | Ibb ([6]; 90 min): 6.5 µM | hydrolysis in the presence of hepatocytes (monkey hepatocytes): No turnover was observed | half-life at 15 μM (in vitro [7]): 0.25 h | stability / conversion of prodrug to parent in Tris-HCl buffer ([8]; 37°C): less than 2% | Ibb ([8]; 0 min): 14 µM | Ibb ([8]; 15 min): 12 µM | Ibb ([8]; 30 min): 13 µM | Ibb ([8]; 45 min): 12 µM | Ibb ([8]; 60 min): 13 µM | Ibb ([8]; 90 min): 12 µM | hydrolysis in the presence of hepatocytes (rat hepatocytes): hydrolyzed

half-life at 10 μM (in vitro [1]): 1.33 h | hydrolysis in the presence of hepatocytes (dog hepatocytes): hydrolyzed | Iab / IVa Formed ([2]; 37°C, 0 min): 9.0 µM | Iab / IVa Formed ([2]; 15 min): 7.3 µM | Iab / IVa Formed ([2]; 30 min): 6.8 µM | Iab / IVa Formed ([2]; 45 min): 6.5 µM | Iab / IVa Formed ([2]; 60 min): 6.3 µM | Iab / IVa Formed ([2]; 90 min): 6.3 µM | half-life at 10 μM (in vitro [3]): 3.03 h | Iab / IVa Formed ([4]; 37°C, 0 min): 9.2 µM | Iab / IVa Formed ([4]; 15 min): 9.0 µM | Iab / IVa Formed ([4]; 30 min): 7.8 µM | Iab / IVa Formed ([4]; 45 min): 7.8 µM | Iab / IVa Formed ([4]; 60 min): 7.1 µM | Iab / IVa Formed ([4]; 90 min): 6.7 µM | Iab / IVa Formed ([5]; 0 min): 8.5 µM | Iab / IVa Formed ([5]; 20 min): 9.2 µM | Iab / IVa Formed ([5]; 40 min): 9.2 µM | Iab / IVa Formed ([5]; 60 min): 8.7 µM | Iab / IVa Formed ([6]; 37°C, 0 min): 9.5 µM | Iab / IVa Formed ([6]; 15 min): 9.2 µM | Iab / IVa Formed ([6]; 30 min): 9.0 µM | Iab / IVa Formed ([6]; 45 min): 9.6 µM | Iab / IVa Formed ([6]; 60 min): 9.1 µM | Iab / IVa Formed ([6]; 90 min): 9.4 µM | hydrolysis in the presence of hepatocytes (monkey hepatocytes): hydrolyzed | half-life at 10 μM (in vitro [7]): 6.08 h | stability / conversion of prodrug to parent in Tris-HCl buffer ([8]; 37°C): stable | Iab / IVa Formed ([8]; Tris-HCl buffer (0.1 M, pH 7.5), 37°C, 0 min): 10 µM | Iab / IVa Formed ([8]; Tris-HCl buffer, 20 min): 10 µM | Iab / IVa Formed ([8]; Tris-HCl buffer, 40 min): 7.6 µM | Iab / IVa Formed ([8]; Tris-HCl buffer, 60 min): 10 µM | hydrolysis in the presence of hepatocytes (rat hepatocytes): hydrolyzed
Structure (SMILES): COc1cnc(OC)c2c1c(C(=O)C(=O)N1CCN(C(=O)c3ccccc3)CC1)cn2COP(=O)(O)O [Iab, {3-[(4-benzoylpiperazin-1-yl)(oxo)acetyl]-4,7-dimethoxy-1H-pyrrolo[2,3-c]pyridin-1-yl}methyl dihydrogen phosphate, L-lysine salt (1:1)]
